# Assay results from US11020399B2, “Intermediates useful in the synthesis of compounds as modulators of protein kinases” (Rhizen Pharmaceuticals SA, priority 2011, dated 2021).
# Legend:
# Type in all cases: biochemical
# [1] = target: PI3kβ (Homo sapiens, UniProt P42338); test: Fluorescent (HTRF) determination of PI3 kinase enzyme activity, PI3Kβ; conditions: 1 uM
# Text: (§1) Assay 1: Fluorescent Determination of PI3Kinase Kinase Enzyme Activity
# (§2) Phosphoinositide 3 kinases (PI3K) belong to a class of lipid kinases that play a critical role in the regulation of several key cellular processes. The PI3K are capable of phosphorylating the 3-hydroxy position of phosphoinositols thereby generating second messengers involved in downstream signalling events. The homogenous time resolved fluorescence (HTRF) assay allows detection of 3,4,5-triphosphate (PIP3) formed as a result of phosphorylation of phosphotidylinositol 4,5-biphosphate (PIP2) by PI3K isoforms such as α, β, γ or δ. PI3K isoform activity for a, p, y or 8 was determined using a PI3K human HTRF™ Assay Kit (Millipore, Billerica, Mass.) with modifications. All incubations were carried out at room temperature. Briefly, 0.5 μl of 40× inhibitor (in 100% DMSO) or 100% DMSO were added to each well of a 384-well black plate (Greiner Bio-One, Monroe, N.C.) containing 14.5 μl IX reaction buffer /PIP2 (10 mM MgCl2, 5 mM DTT, 1.38 μM PIP2) mix with or without enzyme and incubated for 10 min. After the initial incubation, 5 μl/well of 400 μM ATP was added and incubated for an additional 30 minutes. Reaction was terminated by adding 5 μl/well stop solution (Millipore, Billerica, Mass.). Five microliters of detection mix (Millipore, Billerica, Mass.) were then added to each well and was incubated for 6-18 h in the dark. HRTF ratio was measured on a microplate reader (BMG Labtech., Germany) at an excitation wavelength of 337 nm and emission wavelengths of 665 and 620 nm with an integration time of 400 μsec.
# (§3) Data were analyzed using Graphpad Prism (Graphpad software; San Diego Calif.) for IC50 determination. Examples 1-59 were tested at 1 uM for Pi3kα & Pi3k β and at 0.3 uM for γ and δ. Examples 60-137 were tested at 1 uM for Pi3kα & Pi3k β and at 0.1 uM for γ and δ. Percent inhibition was calculated based on the values for the blank and enzyme controls. The results are as provided in Table 2 (wherein D=0 to 25%; C=>25 to 50%; B=>50 to 75%; A=>75 to 100%; +++++=≤50 nM; ++++=>50 to ≤100 nM; +++=>100 to ≤300 nM; ++=>300 to ≤500 nM; +=>500 nM)
# [2] = target: PI3kα (Homo sapiens, UniProt P42336); test: Fluorescent (HTRF) determination of PI3 kinase enzyme activity, PI3Kα
# Text: as §1, §2, §3
# [3] = target: PI3kδ (Homo sapiens, UniProt O00329); test: Fluorescent (HTRF) determination of PI3 kinase enzyme activity, PI3Kδ; conditions: for inhibition at 0.3 µM: 300 nM (Examples 1-59)
# Text: as §1, §2, §3
# [4] = target: PI3kγ (Homo sapiens, UniProt P48736); test: Fluorescent (HTRF) determination of PI3 kinase enzyme activity, PI3Kγ; conditions: for inhibition at 0.3 µM: 300 nM (Examples 1-59)
# Text: as §1, §2, §3
# [5] = 100 nM (Examples 60-137), 0.1 µM
# PI3kβ, sequence (P42338 whole entry): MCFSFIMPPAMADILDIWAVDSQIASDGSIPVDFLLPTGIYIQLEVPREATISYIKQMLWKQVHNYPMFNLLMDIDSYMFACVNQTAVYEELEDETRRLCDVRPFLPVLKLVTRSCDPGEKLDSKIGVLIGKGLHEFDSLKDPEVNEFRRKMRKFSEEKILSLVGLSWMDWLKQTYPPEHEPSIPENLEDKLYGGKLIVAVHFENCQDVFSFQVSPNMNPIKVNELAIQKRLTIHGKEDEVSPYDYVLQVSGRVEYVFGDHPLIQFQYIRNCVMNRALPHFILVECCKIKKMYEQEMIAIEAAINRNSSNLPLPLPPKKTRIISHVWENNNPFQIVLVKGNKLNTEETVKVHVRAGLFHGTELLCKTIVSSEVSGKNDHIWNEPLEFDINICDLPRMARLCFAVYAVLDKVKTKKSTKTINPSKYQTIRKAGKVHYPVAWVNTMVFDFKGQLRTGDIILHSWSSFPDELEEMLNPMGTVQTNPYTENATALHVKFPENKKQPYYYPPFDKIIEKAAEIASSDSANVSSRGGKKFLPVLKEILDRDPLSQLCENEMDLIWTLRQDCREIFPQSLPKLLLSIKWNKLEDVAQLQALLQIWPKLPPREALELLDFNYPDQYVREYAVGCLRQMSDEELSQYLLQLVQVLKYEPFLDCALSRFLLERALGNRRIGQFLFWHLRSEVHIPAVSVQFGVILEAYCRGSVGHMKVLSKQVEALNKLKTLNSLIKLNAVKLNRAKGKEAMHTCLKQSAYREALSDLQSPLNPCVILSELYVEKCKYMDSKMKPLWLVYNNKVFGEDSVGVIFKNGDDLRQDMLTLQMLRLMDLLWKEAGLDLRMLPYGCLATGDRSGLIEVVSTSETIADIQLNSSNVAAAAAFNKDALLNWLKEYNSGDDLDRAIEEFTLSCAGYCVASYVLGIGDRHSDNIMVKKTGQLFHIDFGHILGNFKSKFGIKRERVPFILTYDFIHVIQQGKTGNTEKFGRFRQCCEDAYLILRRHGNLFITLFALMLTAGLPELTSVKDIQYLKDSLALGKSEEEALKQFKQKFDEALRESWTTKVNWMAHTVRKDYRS
# PI3kβ, sequence (P27986 whole entry partner): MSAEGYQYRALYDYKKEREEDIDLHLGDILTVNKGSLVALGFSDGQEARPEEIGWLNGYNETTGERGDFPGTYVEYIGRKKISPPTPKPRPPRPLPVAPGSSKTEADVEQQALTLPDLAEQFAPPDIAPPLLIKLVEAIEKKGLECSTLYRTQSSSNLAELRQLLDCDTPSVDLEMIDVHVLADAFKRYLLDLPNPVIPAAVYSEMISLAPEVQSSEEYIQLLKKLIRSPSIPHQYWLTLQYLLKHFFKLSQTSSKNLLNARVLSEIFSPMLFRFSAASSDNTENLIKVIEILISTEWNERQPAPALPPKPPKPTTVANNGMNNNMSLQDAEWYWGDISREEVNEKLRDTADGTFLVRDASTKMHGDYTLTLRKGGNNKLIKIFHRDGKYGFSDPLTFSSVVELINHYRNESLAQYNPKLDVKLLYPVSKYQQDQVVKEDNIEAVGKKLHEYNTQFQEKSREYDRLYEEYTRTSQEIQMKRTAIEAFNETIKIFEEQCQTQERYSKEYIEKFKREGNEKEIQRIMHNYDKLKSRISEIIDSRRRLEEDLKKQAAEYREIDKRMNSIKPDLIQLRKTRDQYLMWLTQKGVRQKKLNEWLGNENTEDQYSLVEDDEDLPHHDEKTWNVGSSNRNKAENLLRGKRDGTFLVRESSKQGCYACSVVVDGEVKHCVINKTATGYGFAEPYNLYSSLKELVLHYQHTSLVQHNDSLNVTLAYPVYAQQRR
# PI3kδ, sequence (O00329 whole entry): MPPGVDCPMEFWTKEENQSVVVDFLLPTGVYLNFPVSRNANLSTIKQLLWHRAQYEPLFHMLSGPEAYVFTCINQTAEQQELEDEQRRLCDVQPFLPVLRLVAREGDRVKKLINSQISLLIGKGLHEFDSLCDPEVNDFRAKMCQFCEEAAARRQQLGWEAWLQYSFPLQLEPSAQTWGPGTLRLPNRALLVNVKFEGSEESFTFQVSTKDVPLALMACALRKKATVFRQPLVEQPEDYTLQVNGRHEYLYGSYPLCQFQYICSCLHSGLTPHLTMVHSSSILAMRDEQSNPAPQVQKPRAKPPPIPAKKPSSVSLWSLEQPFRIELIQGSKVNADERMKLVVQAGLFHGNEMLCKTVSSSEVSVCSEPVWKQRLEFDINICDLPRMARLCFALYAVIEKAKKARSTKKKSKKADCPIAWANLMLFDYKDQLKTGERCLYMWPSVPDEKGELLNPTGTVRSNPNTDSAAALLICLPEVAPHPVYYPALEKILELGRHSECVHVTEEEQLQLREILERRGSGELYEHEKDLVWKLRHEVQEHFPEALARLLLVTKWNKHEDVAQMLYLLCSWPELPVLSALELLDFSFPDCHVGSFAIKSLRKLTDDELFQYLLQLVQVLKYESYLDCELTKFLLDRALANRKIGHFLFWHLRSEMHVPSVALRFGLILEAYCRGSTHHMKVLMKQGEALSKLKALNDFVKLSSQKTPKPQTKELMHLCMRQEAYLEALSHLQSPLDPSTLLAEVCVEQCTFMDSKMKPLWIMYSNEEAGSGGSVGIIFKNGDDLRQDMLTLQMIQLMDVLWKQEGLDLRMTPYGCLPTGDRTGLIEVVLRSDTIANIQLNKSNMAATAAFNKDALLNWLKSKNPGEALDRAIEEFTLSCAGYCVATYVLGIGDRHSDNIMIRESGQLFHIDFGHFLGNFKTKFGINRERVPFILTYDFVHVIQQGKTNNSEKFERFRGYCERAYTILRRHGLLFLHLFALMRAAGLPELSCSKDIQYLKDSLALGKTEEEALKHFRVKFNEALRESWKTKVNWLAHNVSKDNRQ
# PI3kδ, sequence (P27986 whole entry partner): as the sequence (P27986 whole entry partner) above
# PI3kα, sequence (P42336 whole entry): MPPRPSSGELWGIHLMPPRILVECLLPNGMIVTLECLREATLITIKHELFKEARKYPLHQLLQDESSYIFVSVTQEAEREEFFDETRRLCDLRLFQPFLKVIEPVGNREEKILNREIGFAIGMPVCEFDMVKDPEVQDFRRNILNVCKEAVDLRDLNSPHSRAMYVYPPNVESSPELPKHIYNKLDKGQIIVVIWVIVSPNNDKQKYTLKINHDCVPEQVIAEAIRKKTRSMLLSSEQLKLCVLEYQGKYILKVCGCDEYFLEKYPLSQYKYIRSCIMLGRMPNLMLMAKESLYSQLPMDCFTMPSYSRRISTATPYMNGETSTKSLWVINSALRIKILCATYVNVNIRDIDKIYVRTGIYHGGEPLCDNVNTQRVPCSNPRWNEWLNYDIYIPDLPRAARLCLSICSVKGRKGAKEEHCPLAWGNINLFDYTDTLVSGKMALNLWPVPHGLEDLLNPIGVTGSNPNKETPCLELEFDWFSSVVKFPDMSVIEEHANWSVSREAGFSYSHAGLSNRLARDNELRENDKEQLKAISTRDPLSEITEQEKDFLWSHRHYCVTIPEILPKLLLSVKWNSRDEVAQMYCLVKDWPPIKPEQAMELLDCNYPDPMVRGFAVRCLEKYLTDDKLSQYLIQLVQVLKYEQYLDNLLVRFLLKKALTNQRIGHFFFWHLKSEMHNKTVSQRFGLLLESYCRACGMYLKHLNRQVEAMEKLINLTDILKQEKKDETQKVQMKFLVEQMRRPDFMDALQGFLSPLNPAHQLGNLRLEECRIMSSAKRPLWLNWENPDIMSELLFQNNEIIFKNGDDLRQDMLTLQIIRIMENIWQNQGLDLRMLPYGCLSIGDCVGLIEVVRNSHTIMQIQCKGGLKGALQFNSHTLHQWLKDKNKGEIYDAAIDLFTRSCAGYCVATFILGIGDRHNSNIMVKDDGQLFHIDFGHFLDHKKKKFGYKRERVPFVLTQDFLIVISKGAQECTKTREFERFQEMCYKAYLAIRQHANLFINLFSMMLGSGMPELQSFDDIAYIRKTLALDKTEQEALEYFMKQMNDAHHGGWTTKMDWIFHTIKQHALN
# PI3kα, sequence (P27986 whole entry partner): as the sequence (P27986 whole entry partner) above
# PI3kγ, sequence (P48736 whole entry): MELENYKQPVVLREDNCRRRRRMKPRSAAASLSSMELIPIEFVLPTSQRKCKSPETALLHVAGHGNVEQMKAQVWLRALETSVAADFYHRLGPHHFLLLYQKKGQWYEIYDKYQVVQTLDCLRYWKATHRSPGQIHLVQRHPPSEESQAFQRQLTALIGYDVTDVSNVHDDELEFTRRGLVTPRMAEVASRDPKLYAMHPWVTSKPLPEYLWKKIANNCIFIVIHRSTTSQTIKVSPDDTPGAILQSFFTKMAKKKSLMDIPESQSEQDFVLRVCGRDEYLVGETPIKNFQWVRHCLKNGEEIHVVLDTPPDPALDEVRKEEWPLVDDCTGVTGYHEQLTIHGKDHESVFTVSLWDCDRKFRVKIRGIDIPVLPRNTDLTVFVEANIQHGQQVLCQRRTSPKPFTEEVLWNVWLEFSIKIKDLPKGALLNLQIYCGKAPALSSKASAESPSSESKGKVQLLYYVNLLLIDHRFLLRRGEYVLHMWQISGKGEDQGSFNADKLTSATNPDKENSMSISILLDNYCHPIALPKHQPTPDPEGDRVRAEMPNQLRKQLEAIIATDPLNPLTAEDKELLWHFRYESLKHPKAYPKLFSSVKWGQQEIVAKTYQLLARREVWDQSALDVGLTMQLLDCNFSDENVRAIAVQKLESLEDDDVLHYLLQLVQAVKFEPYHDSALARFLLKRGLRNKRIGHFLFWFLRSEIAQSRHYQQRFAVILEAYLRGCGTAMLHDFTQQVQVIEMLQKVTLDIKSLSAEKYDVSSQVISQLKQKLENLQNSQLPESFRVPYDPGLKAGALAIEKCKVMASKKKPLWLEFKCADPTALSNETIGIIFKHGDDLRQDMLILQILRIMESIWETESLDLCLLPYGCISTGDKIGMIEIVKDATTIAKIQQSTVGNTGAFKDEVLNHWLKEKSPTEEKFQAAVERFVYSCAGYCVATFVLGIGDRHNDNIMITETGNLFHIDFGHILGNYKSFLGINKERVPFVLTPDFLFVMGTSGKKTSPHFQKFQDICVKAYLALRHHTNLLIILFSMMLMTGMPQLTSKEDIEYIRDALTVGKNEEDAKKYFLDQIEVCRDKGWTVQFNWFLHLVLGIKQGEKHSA
SMILES,inhibition at 0.3 µM [3] [%],inhibition at 0.3 µM [4] [%],inhibition at 1 µM [1] [%],inhibition at 1 µM [2] [%],other results
"Cc1cc(-c2nn(C(C)c3oc4cccc(F)c4c(=O)c3-c3cccc(F)c3)c3ncnc(N)c23)ccc1OC(C)C (stereo not drawn) [Example 50, 2-(1-(4-amino-3-(4-isopropoxy-3-methylphenyl)-1H-pyrazolo[3,4-d]pyrimidin-1-yl)ethyl)-5-fluoro-3-(3-fluorophenyl)-4H-chromen-4-one]",75 to 100,50 to 75,–,–,% inhibition (PI3kβ) 1 uM [1]: C (C=>25 to 50%); % inhibition (PI3kα) 1 uM [2]: D (D=0 to 25%)
"CC(c1oc2cccc(F)c2c(=O)c1-c1ccccc1)n1ncc2c(N)ncnc21 (stereo not drawn) [Example 29, 2-(1-(4-amino-1H-pyrazolo[3,4-d]pyrimidin-1-yl)ethyl)-5-fluoro-3-phenyl-4H-chromen-4-one]",25 to 50,50 to 75,25 to 50,0 to 25,–
"CC(C)Oc1ccc(-c2nn(C(C)c3oc4cccc(F)c4c(=O)c3-c3cccc(F)c3)c3ncnc(N)c23)cc1F (stereo not drawn) [Example 6, 2-(1-(4-amino-3-(3-fluoro-4-isopropoxyphenyl)-1H-pyrazolo[3,4-d]pyrimidin-1-yl)ethyl)-5-fluoro-3-(3-fluorophenyl)-4H-chromen-4-one]",75 to 100,75 to 100,25 to 50,0 to 25,IC50 ([2]; numeric values): > 10000 nM; IC50 [3]: ≤ 50 nM; IC50 [4]: 50 to 100 nM
"CC(c1oc2cccc(F)c2c(=O)c1-c1cccc(F)c1)n1cnc2c(N(C)C)ncnc21 (stereo not drawn) [Example 110, 2-(1-(6-(dimethylamino)-9H-purin-9-yl)ethyl)-5-fluoro-3-(3-fluorophenyl)-4H-chromen-4-one]",–,–,25 to 50,0 to 25,"IC50 [3]: ≤ 50 nM; % inhibition (PI3kδ) 100 nM [3, 5]: A (A=>75 to 100%); IC50 [4]: 50 to 100 nM; % inhibition (PI3kγ) 100 nM [4, 5]: B (B=>50 to 75%)"
"CC(c1oc2cccc(F)c2c(=O)c1-c1ccc(F)cc1)n1cnc2c(N3CCOCC3)ncnc21 (stereo not drawn) [Example 108, 5-fluoro-3-(4-fluorophenyl)-2-(1-(6-morpholino-9H-purin-9-yl)ethyl)-4H-chromen-4-one]",–,–,0 to 25,25 to 50,inhibition at 0.1 µM ([3]; 100 nM (Examples 60-137)): 25 to 50%; inhibition at 0.1 µM ([4]; 100 nM (Examples 60-137)): 25 to 50%
"Cc1nn(C(C)c2oc3cccc(F)c3c(=O)c2-c2cccc(F)c2)c2ncnc(N)c12 (stereo not drawn) [Example 33, 2-(1-(4-amino-3-methyl-1H-pyrazolo[3,4-d]pyrimidin-1-yl)ethyl)-5-fluoro-3-(3-fluorophenyl)-4H-chromen-4-one]",50 to 75,50 to 75,25 to 50,0 to 25,–
"CC(c1oc2cccc(F)c2c(=O)c1-c1ccccc1)n1nc(-c2ccc(OC(F)F)c(F)c2)c2c(N)ncnc21 (racemic) [Example 102, (S)/(R)-2-(1-(4-amino-3-(4-(difluoromethoxy)-3-fluorophenyl)-1H-pyrazolo[3,4-d]pyrimidin-1-yl)ethyl)-5-fluoro-3-phenyl-4H-chromen-4-one]",–,–,50 to 75,–,% inhibition (PI3kα) 1 uM [2]: C (C=>25 to 50%); inhibition at 0.1 µM ([3]; 100 nM (Examples 60-137)): 0 to 25%; inhibition at 0.1 µM ([4]; 100 nM (Examples 60-137)): 25 to 50%
"CC(c1oc2cccc(F)c2c(=O)c1-c1ccc(F)cc1)n1nc(-c2ccc(OC(F)F)c(F)c2)c2c(N)ncnc21 (stereo not drawn) [Example 31, 2-(1-(4-amino-3-(4-(difluoromethoxy)-3-fluorophenyl)-1H-pyrazolo[3,4-d]pyrimidin-1-yl)ethyl)-5-fluoro-3-(4-fluorophenyl)-4H-chromen-4-one]",50 to 75,50 to 75,25 to 50,25 to 50,–
"Cc1n[nH]c2cc(-c3nn(C(C)c4oc5cccc(F)c5c(=O)c4-c4cccc(F)c4)c4ncnc(N)c34)ccc12 (stereo not drawn) [Example 9, 2-(1-(4-amino-3-(3-methyl-1H-indazol-6-yl)-1H-pyrazolo[3,4-d]pyrimidin-1-yl)ethyl)-5-fluoro-3-(3-fluorophenyl)-4H-chromen-4-one]",75 to 100,75 to 100,25 to 50,25 to 50,IC50 [3]: ≤ 50 nM; IC50 [4]: 50 to 100 nM
"Cc1nc2ccc(-c3nn(C(C)c4oc5cccc(F)c5c(=O)c4-c4cccc(F)c4)c4ncnc(N)c34)cc2o1 (stereo not drawn) [Example 118, 2-(1-(4-amino-3-(2-methylbenzo[d]oxazol-6-yl)-1H-pyrazolo[3,4-d]pyrimidin-1-yl)ethyl)-5-fluoro-3-(3-fluorophenyl)-4H-chromen-4-one]",–,–,0 to 25,25 to 50,inhibition at 0.1 µM ([3]; 100 nM (Examples 60-137)): 25 to 50%; inhibition at 0.1 µM ([4]; 100 nM (Examples 60-137)): 25 to 50%
"CC(C)Oc1ccc(-c2nn(C(C)c3oc4cccc(F)c4c(=O)c3-c3ccc(F)cc3)c3ncnc(N)c23)cc1F (racemic) [Example 94, (S)/(R)-2-(1-(4-amino-3-(3-fluoro-4-isopropoxyphenyl)-1H-pyrazolo[3,4-d]pyrimidin-1-yl)ethyl)-5-fluoro-3-(4-fluorophenyl)-4H-chromen-4-one]",–,–,25 to 50,–,% inhibition (PI3kα) 1 uM [2]: C (C=>25 to 50%); inhibition at 0.1 µM ([3]; 100 nM (Examples 60-137)): 25 to 50%; inhibition at 0.1 µM ([4]; 100 nM (Examples 60-137)): 25 to 50%
"CC(c1oc2cccc(F)c2c(=O)c1-c1cccc(F)c1)n1nc(-c2ccc(OC(F)F)c(F)c2)c2c(N)ncnc21 (stereo not drawn) [Example 17, 2-(1-(4-amino-3-(4-(difluoromethoxy)-3-fluorophenyl)-1H-pyrazolo[3,4-d]pyrimidin-1-yl)ethyl)-5-fluoro-3-(3-fluorophenyl)-4H-chromen-4-one]",75 to 100,25 to 50,25 to 50,0 to 25,–
"Cc1n[nH]c2cc(-c3nn([C@@H](C)c4oc5cccc(F)c5c(=O)c4-c4cccc(F)c4)c4ncnc(N)c34)ccc12 [Example 9a, (+)-2-(1-(4-amino-3-(3-methyl-1H-indazol-6-yl)-1H-pyrazolo[3,4-d]pyrimidin-1-yl)ethyl)-5-fluoro-3-(3-fluorophenyl)-4H-chromen-4-one]",–,–,25 to 50,0 to 25,IC50 [3]: ≤ 50 nM; IC50 [4]: ≤ 50 nM
"CC(c1oc2cccc(F)c2c(=O)c1-c1cccc(F)c1)n1ncc2c(N(C)C)ncnc21 (stereo not drawn) [Example 28, 2-(1-(4-(dimethylamino)-1H-pyrazolo[3,4-d]pyrimidin-1-yl)ethyl)-5-fluoro-3-(3-fluorophenyl)-4H-chromen-4-one]",50 to 75,50 to 75,25 to 50,0 to 25,–
"CC(c1oc2cccc(F)c2c(=O)c1-c1cccc(F)c1)n1nc(N(C)C)c2c(N)ncnc21 (stereo not drawn) [Example 38, 2-(1-(4-amino-3-(dimethylamino)-1H-pyrazolo[3,4-d]pyrimidin-1-yl)ethyl)-5-fluoro-3-(3-fluorophenyl)-4H-chromen-4-one]",50 to 75,0 to 25,25 to 50,25 to 50,–
"CC(c1oc2cccc(F)c2c(=O)c1-c1ccc(F)cc1)n1cnc2c(N)nc(F)nc21 (stereo not drawn) [Example 107, 2-(1-(6-amino-2-fluoro-9H-purin-9-yl)ethyl)-5-fluoro-3-(4-fluorophenyl)-4H-chromen-4-one]",–,–,25 to 50,0 to 25,inhibition at 0.1 µM ([3]; 100 nM (Examples 60-137)): 0 to 25%; inhibition at 0.1 µM ([4]; 100 nM (Examples 60-137)): 25 to 50%
"CC(c1oc2cccc(F)c2c(=O)c1-c1cccc(F)c1)n1nc(-c2ccc(N(C)C)c(F)c2)c2c(N)ncnc21 (stereo not drawn) [Example 24, 2-(1-(4-amino-3-(4-(dimethylamino)-3-fluorophenyl)-1H-pyrazolo[3,4-d]pyrimidin-1-yl)ethyl)-5-fluoro-3-(3-fluorophenyl)-4H-chromen-4-one]",–,25 to 50,50 to 75,0 to 25,–
"Cc1nc2cc(-c3nn(C(C)c4oc5cccc(F)c5c(=O)c4-c4cccc(F)c4)c4ncnc(N)c34)ccc2[nH]1 (stereo not drawn) [Example 26, 2-(1-(4-amino-3-(2-methyl-1H-benzo[d]imidazol-5-yl)-1H-pyrazolo[3,4-d]pyrimidin-1-yl)ethyl)-5-fluoro-3-(3-fluorophenyl)-4H-chromen-4-one]",–,75 to 100,25 to 50,0 to 25,IC50 [4]: 50 to 100 nM
